A short description of this series: HPLC bile acid analysis of plasma and brain. It is filed as in vivo, rat. Conditions: after UDCA and TUDCA administration. On the procedure:
Rats were separated into 5 groups, and each received a single injection of vehicle (n=18), 25 mg s-UDCA/Kg (n=9), 100 mg UDCA/Kg (n=18), 400 mg UDCA/kg (n=9), and 400 mg TUDCA/kg (n=9) intravenously immediately after reperfusion.
Blood and brain were collected 1 hour after s-UDCA, TUDCA, or vehicle injection, and were assessed by HPLC for bile acid analysis. Briefly, whole blood was drawn, clotted, and centrifuged and plasma was separated and frozen. After appropriate, humane anesthesia (5% chloral hydrate) and transcardial phosphate buffer perfusion, brains were removed, flash-frozen, and stored at −70° C. Free UDCA concentrations were measured by HPLC (JASCO HPLC Bile Acids Analysis System). Bile acids were assessed by HPLC according to, for example, U.S. patent application Ser. No. 09/778,154 filed Feb. 5, 2001, the full disclosure of which is hereby incorporated by reference.

As to `C[C@H](CCC(=O)NCCS(=O)(=O)O)[C@H]1CC[C@H]2[C@@H]3[C@@H](O)C[C@@H]4C[C@H](O)CC[C@]4(C)[C@H]3CC[C@]12C` [TUDCA, tauroursodeoxycholic acid], the “TUDCA detected in brain as well as blood” value is “not detected”.

The values above are taken from US8173627B2, “Neuroprotective effect of solubilized UDCA in focal ischemic model” (priority 2004, dated 2012).
